Data taken from patent publication US11566007B2, “Ras inhibitors” (Revolution Medicines, Inc., priority 2019, dated 2023).

Assays:
[1] = system: NCI-H358 cells (K-Ras G12C); test: Potency assay: pERK in NCI-H358 cells; format: cell-based, human; settings: Homo sapiens, NCI-H358; H358 KRAS G12C; read-out: pERK EC50
Outline: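 Compounds are dosed as ten 3-fold dilutions from a 10 mM DMSO stock, in duplicate, and left on cells for 4 h at 37 °C, 5% CO2. Phospho-ERK1/2 is then quantified by AlphaLISA SureFire Ultra or In-Cell Western, and IC50 is derived from a 4-parameter sigmoid against log concentration.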

NCI-H358 (K-Ras G12C) = test: CellTiter-Glo cell viability assay, NCI-H358; format: cell-based, human; settings: Homo sapiens, NCI-H358, 120 h, NCI-H358, 5-day treatment; class symbols; read-out: Additional H358 Cell Viability assay data (K-Ras G12C, IC50)
Outline: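 Luminescent viability readout on day 5 after direct compound addition to plated cells; plates sat ~30 min at room temperature before reading. Values expressed as percent of mean DMSO signal, curves fit with a four-parameter logistic model.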

K-Ras G12C = K-Ras G12C (Homo sapiens (Human), UniProt P01116+P62937, G12C); test: Ras-Raf (BRAF RBD) disruption / FRET / MOA assay, KRAS G12C; format: biochemical; settings: KRAS G12C; Ras-Raf disruption/FRET/MOA assay; read-out: IC50* KRAS G12C FRET data
Outline: (§1)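 Ras:RAF disruption was scored as a fall in TR-FRET ratio relative to DMSO. Compound ranged in 3-fold steps over 10 points from 30 μM final; incubation ran 3 h at 25° C, detection antibodies a further 1.5 h. Reported as IC50.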

K-Ras G13C = K-Ras G13C (Homo sapiens (Human), UniProt P01116+P62937, G13C); test: Ras-Raf (BRAF RBD) disruption / FRET / MOA assay, KRAS G13C; format: biochemical; settings: KRAS G13C; Ras-Raf disruption/FRET/MOA assay; read-out: IC50* KRAS G13C FRET data
Outline: as §1

KRAS G12S = KRAS G12S (Homo sapiens (Human), UniProt P01116+P62937, G12S); test: Ras-Raf (BRAF RBD) disruption / FRET / MOA assay, KRAS G12S; format: biochemical; settings: Ras-Raf disruption/FRET/MOA assay; class symbols; read-out: KRAS G12S FRET data IC50
Outline: as §1

KRAS G12D = KRAS G12D (Homo sapiens (Human), UniProt P01116+P62937, G12D); test: Ras-Raf (BRAF RBD) disruption / FRET / MOA assay, KRAS G12D; format: biochemical; settings: Ras-Raf disruption/FRET/MOA assay; class symbols; read-out: KRAS G12D FRET data IC50
Outline: as §1

KRAS G12V = KRAS G12V (Homo sapiens (Human), UniProt P01116+P62937, G12V); test: Ras-Raf (BRAF RBD) disruption / FRET / MOA assay, KRAS G12V; format: biochemical; settings: read-out: IC50* KRAS G12V FRET data
Outline: as §1

KRAS WT = KRAS WT (Homo sapiens (Human), UniProt P01116+P62937); test: Ras-Raf (BRAF RBD) disruption / FRET / MOA assay, KRAS WT; format: biochemical; settings: read-out: IC50* KRAS WT FRET data
Outline: as §1

KRAS G13D = KRAS G13D (Homo sapiens (Human), UniProt P01116+P62937, G13D); test: Ras-Raf (BRAF RBD) disruption / FRET / MOA assay, KRAS G13D; format: biochemical; settings: read-out: IC50* KRAS G13D FRET data
Outline: as §1

NRAS G12C = NRAS G12C (Homo sapiens (Human), UniProt P01111+P62937, G12C); test: Ras-Raf (BRAF RBD) disruption / FRET / MOA assay, NRAS G12C; format: biochemical; settings: read-out: IC50* NRAS G12C FRET data
Outline: as §1

Sequence of KRAS G13D (P01116-2 other isoform, or with tags, fused parts or gaps G13D): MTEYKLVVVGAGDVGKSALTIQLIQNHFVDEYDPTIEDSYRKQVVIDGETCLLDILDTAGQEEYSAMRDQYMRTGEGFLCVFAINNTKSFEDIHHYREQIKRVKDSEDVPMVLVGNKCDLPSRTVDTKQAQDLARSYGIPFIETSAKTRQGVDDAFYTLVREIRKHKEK
Sequence of KRAS G13D (P62937 whole entry): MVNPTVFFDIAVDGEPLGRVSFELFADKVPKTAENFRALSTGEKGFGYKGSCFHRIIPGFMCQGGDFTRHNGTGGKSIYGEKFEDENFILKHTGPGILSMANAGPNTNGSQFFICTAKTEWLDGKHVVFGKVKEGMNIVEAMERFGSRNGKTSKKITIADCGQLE
Sequence of KRAS G12S (P01116-2 other isoform, or with tags, fused parts or gaps G12S): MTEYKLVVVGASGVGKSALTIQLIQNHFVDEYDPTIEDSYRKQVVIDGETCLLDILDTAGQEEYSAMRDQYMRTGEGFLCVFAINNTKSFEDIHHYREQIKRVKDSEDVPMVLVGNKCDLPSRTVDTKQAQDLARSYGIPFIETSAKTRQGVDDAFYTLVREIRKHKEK
Sequence of KRAS G12S (P62937 whole entry): as the sequence (P62937 whole entry) above
Sequence of KRAS G12V (P01116-2 other isoform, or with tags, fused parts or gaps G12V): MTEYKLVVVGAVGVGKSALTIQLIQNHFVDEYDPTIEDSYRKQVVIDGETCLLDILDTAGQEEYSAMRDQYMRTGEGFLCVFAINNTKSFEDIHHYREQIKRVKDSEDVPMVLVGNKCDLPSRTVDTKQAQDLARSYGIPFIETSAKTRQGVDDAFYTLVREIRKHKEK
Sequence of KRAS G12V (P62937 whole entry): as the sequence (P62937 whole entry) above
Sequence of KRAS WT (P01116-2 other isoform, or with tags, fused parts or gaps): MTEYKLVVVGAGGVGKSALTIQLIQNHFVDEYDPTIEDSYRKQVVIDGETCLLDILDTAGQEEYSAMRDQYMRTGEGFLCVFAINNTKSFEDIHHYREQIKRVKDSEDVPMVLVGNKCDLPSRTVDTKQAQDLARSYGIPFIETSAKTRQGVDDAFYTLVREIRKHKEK
Sequence of KRAS WT (P62937 whole entry): as the sequence (P62937 whole entry) above
Sequence of K-Ras G13C (P01116-2 other isoform, or with tags, fused parts or gaps G13C): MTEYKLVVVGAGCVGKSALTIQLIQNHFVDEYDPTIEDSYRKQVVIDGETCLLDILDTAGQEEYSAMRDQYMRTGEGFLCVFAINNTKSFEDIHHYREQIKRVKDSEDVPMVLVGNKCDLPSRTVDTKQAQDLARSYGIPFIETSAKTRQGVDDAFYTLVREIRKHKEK
Sequence of K-Ras G13C (P62937 whole entry): as the sequence (P62937 whole entry) above
Sequence of K-Ras G12C (P01116-2 other isoform, or with tags, fused parts or gaps G12C): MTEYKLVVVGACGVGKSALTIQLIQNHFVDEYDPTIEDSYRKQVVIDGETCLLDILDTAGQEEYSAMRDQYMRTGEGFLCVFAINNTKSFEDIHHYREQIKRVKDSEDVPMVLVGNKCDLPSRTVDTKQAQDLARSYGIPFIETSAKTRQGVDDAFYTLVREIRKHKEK
Sequence of K-Ras G12C (P62937 whole entry): as the sequence (P62937 whole entry) above
Sequence of KRAS G12D (P01116-2 other isoform, or with tags, fused parts or gaps G12D): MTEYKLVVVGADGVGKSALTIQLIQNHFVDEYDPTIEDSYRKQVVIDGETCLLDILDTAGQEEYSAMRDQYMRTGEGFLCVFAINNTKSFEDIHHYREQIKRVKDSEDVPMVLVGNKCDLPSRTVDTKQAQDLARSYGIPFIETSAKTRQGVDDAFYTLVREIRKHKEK
Sequence of KRAS G12D (P62937 whole entry): as the sequence (P62937 whole entry) above
Sequence of NRAS G12C (P01111 whole entry G12C): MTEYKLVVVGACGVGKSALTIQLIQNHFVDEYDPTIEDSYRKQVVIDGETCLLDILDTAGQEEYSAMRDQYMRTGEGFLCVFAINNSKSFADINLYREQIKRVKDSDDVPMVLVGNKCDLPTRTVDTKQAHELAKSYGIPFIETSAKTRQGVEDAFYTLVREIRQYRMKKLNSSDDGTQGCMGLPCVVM
Sequence of NRAS G12C (P62937 whole entry): as the sequence (P62937 whole entry) above

Row | Structure (SMILES) | EC50 [1] | IC50 (NCI-H358 (K-Ras G12C)) | IC50 (K-Ras G12C) | IC50 (K-Ras G13C) | IC50 (KRAS G12S) | IC50 (KRAS G12D) | IC50 (KRAS G12V) | IC50 (KRAS WT) | IC50 (KRAS G13D) | IC50 (NRAS G12C)
1 | CCn1c(-c2cccnc2[C@H](C)OC)c2c3cc(ccc31)-c1cccc(c1)C[C@H](NC(=O)CCOC1CN(C(=O)C#CC(C)(C)N(C)C)C1)C(=O)N1CCC[C@H](N1)C(=O)OCC(C)(C)C2 (atropisomer, axis not shown) [Example A448] | < 5 µM | 10 to 100 nM | 10 to 100 nM | > 10000 nM | > 10 µM | > 10 µM | > 10 µM | > 10000 nM | > 10 µM | 10 to 100 nM
2 | C=CC(=O)N1C[C@H](C(=O)N(C)[C@H](C(=O)N[C@H]2Cc3cccc(c3)-c3ccc4c(c3)c(c(-c3cccnc3[C@H](C)OC)n4CC)CC(C)(C)COC(=O)[C@@H]3CCCN(N3)C2=O)C(C)C)[C@@H](C)C1 (atropisomer, axis not shown) [Example A451] | < 5 µM | 10 to 100 nM | 100 to 1000 nM | 100 to 1000 nM | 1 to 10 µM | 1 to 10 µM | 1 to 10 µM | 1000 to 10000 nM | 1 to 10 µM | 100 to 1000 nM
3 | C=CC(=O)N1CC2(C1)OCN([C@H](C(=O)N[C@H]1Cc3cccc(c3)-c3ccc4c(c3)c(c(-c3cccnc3[C@H](C)OC)n4CC)CC(C)(C)COC(=O)[C@@H]3CCCN(N3)C1=O)C(C)C)C2=O (atropisomer, axis not shown) [Example A452] | < 5 µM | < 10 nM | 10 to 100 nM | 10 to 100 nM | 1 to 10 µM | > 10 µM | 1 to 10 µM | 100 to 1000 nM | 1 to 10 µM | 10 to 100 nM
4 | CO[C@@H](C)c1ncccc1-c1c2c3cc(ccc3n1CC(F)(F)F)-c1nc(cs1)C[C@H](NC(=O)[C@H](C(C)C)N(C)C(=O)[C@H]1CCN(C(=O)C#CC(C)(C)N3CCC3)C1)C(=O)N1CCC[C@H](N1)C(=O)OCC(C)(C)C2 (atropisomer, axis not shown) [Example A454] | < 5 µM | < 10 nM | 10 to 100 nM | 100 to 1000 nM | 1 to 10 µM | 1 to 10 µM | 1 to 10 µM | 100 to 1000 nM | 1 to 10 µM | 10 to 100 nM
5 | C=CC(=O)N1CC[C@H](C(=O)N(C)[C@H](C(=O)N[C@H]2Cc3csc(n3)-c3ccc4c(c3)c(c(-c3cccnc3[C@H](C)OC)n4CC(F)(F)F)CC(C)(C)COC(=O)[C@@H]3CCCN(N3)C2=O)C(C)C)C1 (atropisomer, axis not shown) [Example A455] | < 5 µM | 10 to 100 nM | 100 to 1000 nM | 100 to 1000 nM | 0.1 to 1 µM | 1 to 10 µM | 1 to 10 µM | 100 to 1000 nM | 1 to 10 µM | 100 to 1000 nM
6 | CCn1c(-c2cccnc2[C@H](C)OC)c2c3cc(ccc31)-c1cc(cc(C(F)F)c1)C[C@H](NC(=O)[C@H](C1CCCC1)N(C)C(=O)[C@H]1CCN(C(=O)C#CC(C)(C)N3CCC3)C1)C(=O)N1CCC[C@H](N1)C(=O)OCC(C)(C)C2 (atropisomer, axis not shown) [Example A456] | < 5 µM | < 10 nM | 10 to 100 nM | 1000 to 10000 nM | 1 to 10 µM | 1 to 10 µM | 1 to 10 µM | 1000 to 10000 nM | 1 to 10 µM | 10 to 100 nM
7 | C=CC(=O)N1CCC2(CC1)OCN([C@H](C(=O)N[C@H]1Cc3cccc(c3)-c3ccc4c(c3)c(c(-c3cccnc3[C@H](C)OC)n4CC)CC(C)(C)COC(=O)[C@@H]3CCCN(N3)C1=O)C(C)C)C2=O (atropisomer, axis not shown) [Example A457] | < 5 µM | 10 to 100 nM | 100 to 1000 nM | 100 to 1000 nM | 1 to 10 µM | > 10 µM | 1 to 10 µM | 100 to 1000 nM | 1 to 10 µM | 100 to 1000 nM
8 | C=CC(=O)N1C[C@@H](C(=O)N(C)[C@H](C(=O)N[C@H]2Cc3cccc(c3)-c3ccc4c(c3)c(c(-c3cccnc3[C@H](C)OC)n4CC)CC(C)(C)COC(=O)[C@@H]3CCCN(N3)C2=O)C(C)C)C(C)(C)C1 (atropisomer, axis not shown) [Example A458] | < 5 µM | 10 to 100 nM | 10 to 100 nM | 100 to 1000 nM | 1 to 10 µM | > 10 µM | 1 to 10 µM | 1000 to 10000 nM | 1 to 10 µM | 10 to 100 nM
9 | C=CC(=O)N1CC(OC[C@H](C(=O)N[C@H]2Cc3nc(cs3)-c3ccc4c(c3)c(c(-c3cccnc3[C@H](C)OC)n4CC)CC(C)(C)COC(=O)[C@@H]3CCCN(N3)C2=O)C(C)C)C1 (atropisomer, axis not shown) [Example A462] | < 5 µM | < 10 nM | 100 to 1000 nM | 1000 to 10000 nM | 1 to 10 µM | > 10 µM | 1 to 10 µM | 1000 to 10000 nM | > 10 µM | 100 to 1000 nM
10 | C=CC(=O)N1CC(C(=O)N(C)[C@H](C(=O)N[C@H]2Cc3cccc(c3)-c3ccc4c(c3)c(c(-c3cccnc3[C@H](C)OC)n4CC)CC(C)(C)COC(=O)[C@@H]3CCCN(N3)C2=O)C(C)C)C1 (atropisomer, axis not shown) [Example A467] | < 5 µM | 10 to 100 nM | 1000 to 10000 nM | 1000 to 10000 nM | > 10 µM | > 10 µM | > 10 µM | > 10000 nM | > 10 µM | 100 to 1000 nM
11 | C=CC(=O)N1CC[C@H](C(=O)N(C)[C@H](C(=O)N[C@H]2Cc3cccc(c3)-c3ccc4c(c3)c(c(-c3cccnc3[C@H](C)OC)n4CC)CC(C)(C)COC(=O)[C@@H]3CCCN(N3)C2=O)C2COC2)C1 (atropisomer, axis not shown) [Example A469] | < 5 µM | 100 to 1000 nM | 100 to 1000 nM | 1000 to 10000 nM | 1 to 10 µM | > 10 µM | 1 to 10 µM | 1000 to 10000 nM | 1 to 10 µM | 100 to 1000 nM
12 | C=CC(=O)N1CC[C@]2(CCN([C@H](C(=O)N[C@H]3Cc4cccc(c4)-c4ccc5c(c4)c(c(-c4cccnc4[C@H](C)OC)n5CC)CC(C)(C)COC(=O)[C@@H]4CCCN(N4)C3=O)C(C)C)C2=O)C1 (atropisomer, axis not shown) [Example A470] | < 5 µM | 10 to 100 nM | 100 to 1000 nM | 100 to 1000 nM | 0.1 to 1 µM | 1 to 10 µM | 1 to 10 µM | 1000 to 10000 nM | 1 to 10 µM | 100 to 1000 nM
13 | C=CC(=O)N1CC[C@@]2(CCN([C@H](C(=O)N[C@H]3Cc4cccc(c4)-c4ccc5c(c4)c(c(-c4cccnc4[C@H](C)OC)n5CC)CC(C)(C)COC(=O)[C@@H]4CCCN(N4)C3=O)C(C)C)C2=O)C1 (atropisomer, axis not shown) [Example A471] | < 5 µM | 10 to 100 nM | 100 to 1000 nM | 100 to 1000 nM | 1 to 10 µM | > 10 µM | > 10 µM | 1000 to 10000 nM | > 10 µM | 100 to 1000 nM
14 | CCn1c(-c2cccnc2[C@H](C)OC)c2c3cc(ccc31)-c1csc(n1)C[C@H](NC(=O)CCOC1CN(C(=O)C#CC(C)(C)N3CCC3)C1)C(=O)N1CCC[C@H](N1)C(=O)OCC(C)(C)C2 (atropisomer, axis not shown) [Example A477] | < 5 µM | 10 to 100 nM | < 10 nM | 1000 to 10000 nM | > 10 µM | > 10 µM | 1 to 10 µM | 1000 to 10000 nM | > 10 µM | 10 to 100 nM
15 | CCn1c(-c2cccnc2[C@H](C)OC)c2c3cc(ccc31)-c1cccc(c1)C[C@H](NC(=O)CCOC1CN(C(=O)C#CC(C)(C)N3CCC3)C1)C(=O)N1CCC[C@H](N1)C(=O)OCC(C)(C)C2 (atropisomer, axis not shown) [Example A478] | < 5 µM | 10 to 100 nM | 10 to 100 nM | > 10000 nM | > 10 µM | > 10 µM | > 10 µM | > 10000 nM | > 10 µM | 10 to 100 nM
